In patent publication US4530714A, “N-aliphatic and N,N-aliphatic phosphoric triamide urease inhibitors and urease inhibited urea based fertilizer compositions” (Allied Corporation, priority 1984, dated 1985):

Legend:
urease [1] = assay: Soil urease inhibition efficacy test, Plano silt loam (Wisconsin soil); type: biochemical; conditions: Plano silt loam pH 5.3, 25° C., three days
Description: (§1) Efficacy tests were conducted to evaluate the efficacy of certain representative phosphoric triamide compounds as urease inhibitors. The inhibition tests were run in a New York soil (Cazenovia silt loam, pH 7.0 or 7.3) or in a Wisconsin Soil (Plano silt loam, pH 5.3). […] The bottle was capped with perforated aluminum foil and incubated at 25° C. for three days prior to extraction with 100 mL of a 2M potassium chloride solution containing 0.5 mg of phenylmercuric acetate. The extracts were then analyzed for remaining urea using an autoanalyzer. Percent inhibition was calculated as
(§2) % Inhibition=[1-(A-B/A-C)]×100%
(§3) where A is urea recovered from unincubated sample (urea added to soil and immediately extracted); B is urea recovered from inhibited sample; and C is urea recovered from the control (uninhibited sample).

urease [2] = assay: Soil urease inhibition efficacy test, Cazenovia silt loam (New York soil); type: biochemical; conditions: 25° C., three days; for % Inhibition Cazenovian pH 7.0: Cazenovia silt loam pH 7.0, 200 micrograms compound per 20 g soil; for % Inhibition Cazenovian pH 7.3: Cazenovia silt loam pH 7.3, 800 micrograms compound and 42.8 mg urea per 20 g soil
Description: as §1, §2, §3

urease [3] = assay: Percent inhibition versus time in soil (FIG. 1, FIG. 2); type: biochemical; conditions: soil at 25° C. (FIG. 1) and 35° C. (FIG. 2); compared with phenyl phosphorodiamidate
Description: FIG. 1 is a plot of percent inhibition versus time in soils at 25° C. for N,N-diethylphosphorictriamide, a urease inhibitor useful in the practice of this invention, and for the known urease inhibitor, phenyl phosphorodiamidate, and FIG. 2 is a plot of percent inhibition versus time in soil at 35° C. for the same compounds.

urease [4] = assay: Long term urease inhibition, inhibited Cazenovia soil preincubated or left open 11 days before urea application; type: biochemical; conditions: 200 micrograms compound; for % Inhibition, Preincubated for 11 days Open: allowed to volatilize for 11 days prior to urea application; for % Inhibition, Preincubated for 11 days at 25° C.: inhibited soil incubated 11 days at 25° C. prior to urea application; for % Inhibition, Preincubated for 11 days at 35° C.: inhibited soil incubated 11 days at 35° C. prior to urea application
Description: Efficacy tests were conducted to evaluate the efficacy of certain representative phosphoric triamide compounds as urease inhibitors. The inhibition tests were run in a New York soil (Cazenovia silt loam, pH 7.0 or 7.3) or in a Wisconsin Soil (Plano silt loam, pH 5.3). Evaluations (run in triplicate) consisted of applying 800 micrograms of the test compound in 5 mL of water and 42.8 mg of urea in 1 mL of water to 20 g of air-dry soil in a glass bottle. The bottle was capped with perforated aluminum foil and incubated at 25° C. for three days prior to extraction with 100 mL of a 2M potassium chloride solution containing 0.5 mg of phenylmercuric acetate. The extracts were then analyzed for remaining urea using an autoanalyzer. Percent inhibition was calculated as
as §2, §3
The percent inhibition observed, as determined by the means described in Example XVI except using 200 micrograms of the test compound, are set forth in Table II

[5] = Solubility in water (as needed for efficacy test); type: physicochemical; conditions: efficacy test application
[6] = 200 micrograms compound per 20 g soil
[7] = 800 micrograms compound and 42.8 mg urea per 20 g soil

For `NP(N)(=S)NC1CCCCC1` [Compound 17, N-Cyclohexylthiophosphoric Triamide], the “% Inhibition Wisconsin pH 5.3” value (urease [1]; [6]) was 58% and the “% Inhibition Cazenovian pH 7.0” value (urease [2]) was 84%.
In the case of `CCN(CC)P(N)(N)=O` [Compound 1, N,N-Diethylphosphoric Triamide], the “duration of the urease inhibiting activity” value (urease [3]) is reported as “much superior” and the “% Inhibition Cazenovian pH 7.3” value (urease [2]) is reported as 94%.
With `NP(N)(=O)Oc1ccccc1` [Phenyl Phosphorodiamidate, phenyl phosphorodiamidate, reference compound] the “% Inhibition, Preincubated for 11 days Open” value (urease [4]) was 50%, the “% Inhibition, Preincubated for 11 days at 25° C.” value (from here on “% Inhibition … at 25° C.”) (urease [4]) was 26% and the “% Inhibition, Preincubated for 11 days at 35° C.” value (“% Inhibition … at 35° C.” for short) (urease [4]) was 16%. The “% Inhibition, No Preincubation” value (urease [4]) was 76%.
In the case of `CC(C)N(C(C)C)P(N)(N)=S` [Compound 21, N,N-Diisopropylthiophosphoric Triamide], the solubility in water [5] is reported as “too insoluble in water to obtain significant data”.
In the case of `CCCCCCCCCCCCNP(N)(N)=O` [Compound 13, N-(n-Dodecyl)phosphoric Triamide], the “% Inhibition Wisconsin pH 5.3” value (urease [1]; [7]) is reported as 28% and the “% Inhibition Cazenovian pH 7.3” value (urease [2]) is reported as 81%.
In the case of `CC(C)NP(N)(N)=O` [Compound 7, N-Isopropylphosphoric Triamide], the “% Inhibition Cazenovian pH 7.3” value (urease [2]) is reported as 97%.
In the case of `CN(Cc1ccccc1)P(N)(N)=S` [Compound 16, N-Benzyl-N-methylthiophosphoric Triamide], the “% Inhibition Wisconsin pH 5.3” value (urease [1]; [6]) is reported as 24% and the “% Inhibition Cazenovian pH 7.0” value (urease [2]) is reported as 43%.
With `CN(C)P(N)(N)=O` [Compound 2, N,N-Dimethylphosphoric Triamide] the “% Inhibition Cazenovian pH 7.3” value (urease [2]) was 98%.
In the case of `CCCCN(CCCC)P(N)(N)=S` [Compound 23, N,N-Di-(n-Butyl)thiophosphoric Triamide], the “% Inhibition Wisconsin pH 5.3” value (urease [1]; [6]) is reported as 37% and the “% Inhibition Cazenovian pH 7.0” value (urease [2]) is reported as 67%.
For `CCCCNP(N)(N)=O` [Compound 9, N-(n-Butyl)phosphoric Triamide], the “% Inhibition, Preincubated for 11 days Open” value (urease [4]) was 78%, the “% Inhibition … at 25° C.” value (urease [4]) was 75% and the “% Inhibition … at 35° C.” value (urease [4]) was 68%. For the same compound, the “% Inhibition, No Preincubation” value (urease [4]) was 96%, the “% Inhibition Wisconsin pH 5.3” value (urease [1]; [7]) was 52% and the “% Inhibition Cazenovian pH 7.3” value (urease [2]) was 99%.
In the case of `NP(N)(=O)NC1CCCCC1` [Compound 5, N-Cyclohexylphosphoric Triamide], the “% Inhibition Cazenovian pH 7.3” value (urease [2]) is reported as 98%.
In the case of `CCCCCCNP(N)(N)=S` [Compound 18, N-(n-Hexyl)thiophosphoric Triamide], the “% Inhibition Wisconsin pH 5.3” value (urease [1]; [6]) is reported as 52% and the “% Inhibition Cazenovian pH 7.0” value (urease [2]) is reported as 97%.
With `CCC(C)NP(N)(N)=S` (stereo not shown) [Compound 20, N-(sec-Butyl)thiophosphoric Triamide] the “% Inhibition Wisconsin pH 5.3” value (urease [1]; [6]) was 51% and the “% Inhibition Cazenovian pH 7.0” value (urease [2]) was 65%.
With `CCCCCCCCNP(N)(N)=O` [Compound 12, N-(n-Octyl)phosphoric Triamide] the “% Inhibition, Preincubated for 11 days Open” value (urease [4]) was 66%, the “% Inhibition … at 25° C.” value (urease [4]) was 39% and the “% Inhibition … at 35° C.” value (urease [4]) was 36%. The “% Inhibition, No Preincubation” value (urease [4]) was 95%, the “% Inhibition Wisconsin pH 5.3” value (urease [1]; [7]) was 51% and the “% Inhibition Cazenovian pH 7.3” value (urease [2]) was 98%.
With `CN(Cc1ccccc1)P(N)(N)=O` [Compound 4, N-Benzyl-N-methylphosphoric Triamide] the “% Inhibition Cazenovian pH 7.3” value (urease [2]) was 96%.
For `NP(N)(=S)N1CCCC1` [Compound 19, N-(Diaminothiophosphinyl)pyrrolidine], the “% Inhibition Wisconsin pH 5.3” value (urease [1]; [6]) was 23% and the “% Inhibition Cazenovian pH 7.0” value (urease [2]) was 77%.
For `NP(N)(=S)N1CCCCC1` [Compound 22, N-(Diaminothiophosphinyl)piperidine], the “% Inhibition Wisconsin pH 5.3” value (urease [1]; [6]) was 0% and the “% Inhibition Cazenovian pH 7.0” value (urease [2]) was 66%.
With `CCNP(N)(N)=O` [Compound 8, N-Ethylphosphoric Triamide] the “% Inhibition, Preincubated for 11 days Open” value (urease [4]) was 72%, the “% Inhibition … at 25° C.” value (urease [4]) was 74% and the “% Inhibition … at 35° C.” value (urease [4]) was 55%. The “% Inhibition, No Preincubation” value (urease [4]) was 95%, the “% Inhibition Wisconsin pH 5.3” value (urease [1]; [7]) was 47% and the “% Inhibition Cazenovian pH 7.3” value (urease [2]) was 99%.
With `NP(N)(=O)N1CCCCC1` [Compound 6, N-(Diaminophosphinyl)piperidine] the “% Inhibition Cazenovian pH 7.3” value (urease [2]) was 94%.
With `C=CCNP(N)(N)=O` [Compound 3, N-Allylphosphoric Triamide] the “% Inhibition Cazenovian pH 7.3” value (urease [2]) was 93%.
With `CCN(CC)P(N)(N)=S` [Compound 14, N,N-Diethylthiophosphoric Triamide] the “% Inhibition Wisconsin pH 5.3” value (urease [1]; [7]) was 53% and the “% Inhibition Cazenovian pH 7.3” value (urease [2]) was 61%.
In the case of `CCC(C)NP(N)(N)=O` (stereo not shown) [Compound 11, N-(sec-Butyl)phosphoric Triamide], the “% Inhibition, Preincubated for 11 days Open” value (urease [4]) is reported as 77%, the “% Inhibition … at 25° C.” value (urease [4]) is reported as 90% and the “% Inhibition … at 35° C.” value (urease [4]) is reported as 85%. For the same compound, the “% Inhibition, No Preincubation” value (urease [4]) was 92%, the “% Inhibition Wisconsin pH 5.3” value (urease [1]; [7]) was 66% and the “% Inhibition Cazenovian pH 7.3” value (urease [2]) was 96%.
In the case of `CCCCNP(N)(N)=S` [Compound 10, N-(n-Butyl)thiophosphoric Triamide], the “% Inhibition, Preincubated for 11 days Open” value (urease [4]) is reported as 94%, the “% Inhibition … at 25° C.” value (urease [4]) is reported as 98% and the “% Inhibition … at 35° C.” value (urease [4]) is reported as 89%. For the same compound, the “% Inhibition, No Preincubation” value (urease [4]) was 90%, the “% Inhibition Wisconsin pH 5.3” value (urease [1]; [7]) was 95% and the “% Inhibition Cazenovian pH 7.3” value (urease [2]) was 98%.
For `CN(C1CCCCC1)P(N)(N)=O` [Compound 15, N-Cyclohexyl-N-methylphosphoric Triamide], the “% Inhibition, Preincubated for 11 days Open” value (urease [4]) was 67%, the “% Inhibition … at 25° C.” value (urease [4]) was 78% and the “% Inhibition … at 35° C.” value (urease [4]) was 78%. The “% Inhibition, No Preincubation” value (urease [4]) was 80%, the “% Inhibition Wisconsin pH 5.3” value (urease [1]; [7]) was 48% and the “% Inhibition Cazenovian pH 7.3” value (urease [2]) was 92%.
